According to patent US10836735B2, “Compositions and methods for treating cancers” (CEDARS-SINAI MEDICAL CENTER, priority 2014, dated 2020):

Key:
[1] = test system: MIA PaCa-2 pancreatic cancer cell line; assay: Western: histone acetylation and GSK-3β phosphorylation/inhibition; assay type: cell-based; settings: MIA PaCa-2, 72
Experimental: Cells were cultured in the presence or absence of different doses of ALB-185357 for 72 and protein levels measured by Western.

[2] = test system: BxPC-3 pancreatic cancer cell line; assay: Cell survival by MTT assay; assay type: cell-based
Experimental: Thus, the effect of ALB-185357 (a dual inhibitor of HDAC and GSK3β) represents an additional synergism to that observed with the combination of individual agents.
BxPC-3 pancreatic cancer cells were cultured in the presence or absence of different doses of ALB-188540 or ALB-185643 for 72 and cell survival measured by MTT assay.

[3] = test system: MIA PaCa-2 pancreatic cancer cell line; assay: Apoptosis by DNA fragmentation; assay type: cell-based; settings: MIA PaCa-2, 72
Experimental: Dashed lane represents the expected additive effect (Significance between expected additive effect and observed effect is achieved at 2.4 uM).
MIA PaCa-2 cells were cultured in the presence or absence of different doses of ALB-185357 for 72 and apoptosis assessed by measuring DNA fragmentation.
MIA PaCa-2 cells were cultured in the presence or absence of different doses of ALB-185357 or gemcitabine at the low dose of 1 ng/ml for 72 and apoptosis assessed by measuring DNA fragmentation.

[4] = test system: KPC mice; assay: Survival of KPC mice with pancreatic adenocarcinoma; assay type: in vivo; settings: 5 mg/Kg ip 3 times per week from age 8 weeks until death
Experimental: KPC mice, which have Kras and p53 mutations and spontaneously develop pancreatic adenocarcinoma, were ip injected 3 times per week with 5 mg/Kg of ALB185357 from age 8 weeks until death.

[5] = test system: Raji lymphoma cells; assay: Cell survival by counting cell number; assay type: cell-based; settings: 72
Experimental: (§1) Cells were cultured in the presence or absence of different doses of ALB-185357 for 72 and cell survival measured by MTT assay (FIGS. 17 and 18) or by counting cell number (FIG. 19).

[6] = test system: BT474 breast cancer cells; assay: Cell survival by MTT assay; assay type: cell-based; settings: BT474, 72
Experimental: as §1

[7] = test system: hepatocellular carcinoma HepG2 cells; assay: Cell survival by MTT assay; assay type: cell-based; settings: HepG2, 72
Experimental: as §1

[8] = test system: MIA PaCa-2 pancreatic cancer cell line; assay: Western: EMT and cancer stemness markers; assay type: cell-based; settings: MIA PaCa-2, 72
Experimental: (§2) Cells were cultured in the presence or absence of different doses of ALB-185357 for 72 and protein levels measured by Western (FIG. 22A) and cell invasion measured in Matrigel Invasion Chambers (FIG. 22B).

[9] = test system: MIA PaCa-2 pancreatic cancer cell line; assay: Cell invasion in Matrigel Invasion Chambers; assay type: cell-based; settings: MIA PaCa-2, Matrigel Invasion Chambers
Experimental: as §2

[10] = test system: normal pancreatic ductal cells; assay: Cell survival of normal cells by MTT assay; assay type: cell-based; settings: 72
Experimental: Cells were cultured in the presence or absence of different doses of ALB-185357 for 72 and cell survival measured by MTT assay.

[11] = test system: pdx1-Cre-LSL-Kras mice; assay: Mouse model of pancreatic cancer (pdx1-Cre-LSL-Kras) exposed to cigarette smoke: PanIN lesions and fibrosis; assay type: in vivo; settings: Saha 50 mg/Kg 5 times per week, TDZD-8 4 mg/Kg 3 times per week, 6 weeks; compared to control group
Experimental: FIG. 2 depicts, in accordance with various embodiments of the invention, effect of HDAC inhibitor Saha (50 mg/Kg) and GSK3β inhibitor (4 mg/Kg) alone and in combination on reducing PanIN lesion formation.
FIG. 3 depicts, in accordance with various embodiments of the invention, effect of HDAC inhibitor Saha (50 mg/Kg) and GSK3β inhibitor (4 mg/Kg) alone and in combination on fibrosis.
The inventors used a mouse model of pancreatic cancer where an oncogene call mutant K-ras is expressed in the pancreas (pdx1-Cre-LSL-Kras). These mice were exposed to cigarette smoke for 6 weeks in smoking chambers. Groups of mice were injected with GSK3β inhibitor TDZD-8 (4 mg/Kg, 3 times per week) and/or HDAC inhibitor Saha (50 mg/Kg; 5 times per week) for 6 weeks.
The same effect was observed when measuring fibrosis with collagen staining. Fibrosis is a measure of cancer activity.

[12] = test system: MIA PaCa-2 pancreatic cancer cells; assay: Cell survival with GSK3β inhibitor, HDAC inhibitor and combination; assay type: cell-based; settings: FIGS. 5-7
Text: FIG. 7 depicts, in accordance with various embodiments of the invention, effect of combination of GSK3β inhibitor tideglusib and HDAC inhibitor Saha on cell survival in pancreatic cancer cells MIA PaCa-2.

[13] = test system: MIA PaCa-2 pancreatic cancer cells; assay: EMT markers (vimentin, Twist, Snail) in pancreatic cancer cells; assay type: cell-based; settings: FIG. 4
Text: FIG. 4 depicts, in accordance with various embodiments of the invention, effect of HDAC, GSK3β inhibitions combined with gemcitabine on EMT in MIA PaCa-2 pancreatic cancer cells.
Inhibition of GSK3β induces up-regulation of EMT as shown by a measure of vimentin which is an accepted measurement for EMT (FIG. 4). This effect of GSK3β was prevented by the HDAC inhibitor Saha (FIG. 4). […] A combination of the two inhibitors with gemcitabine, a chemotherapeutic agent used in pancreatic cancer led to a complete inhibition of the EMT marker vimentin and its transcription factors (FIG. 4).

COc1ccc(Nc2nnc(-c3ccc(C(=O)NO)cc3)o2)cc1 [ALB-185357]
GSK-3β phosphorylation/inhibition (Western) [1]: dose-dependently up-regulates | histone acetylation (Western) [1]: dose-dependently up-regulates | concentration at which significance of the effect on cell survival was achieved ([2]; BxPC-3, 72 h, MTT): 300 nM | effect on cell survival compared with combination of saha and tideglusib ([2]; BxPC-3, 72 h, same concentration): greater than the combination | cell survival (MTT) ([2]; BxPC-3, cultured 72 h): dose-dependently decreased cell survival | apoptosis (DNA fragmentation level) [3]: dose-dependently increases apoptosis | dose at which significance of apoptosis increase was achieved [3]: 300 nM | increase of mice survival [4]: at least 50% | survival of animals with advance pancreatic cancer [4]: improves survival | cell survival (cell numbers) [5]: dose-dependently decreases cell survival | cell survival (MTT) [6]: dose-dependently decreases cell survival | cell survival (MTT) [7]: dose-dependently decreases cell survival | expression of EMT markers N-cadherin and twist (Western) [8]: decreases expression | expression of cancer stemness marker Sox2 (Western) [8]: decreases expression | cell invasion [9]: decreases the invasion | cell survival of normal cells (MTT) [10]: does not affect cell survival

O=C(CCCCCCC(=O)Nc1ccccc1)NO [Saha, subcroylanilide hydroxamic acid]
formation of pancreatic intraepithelial neoplasia (PanIN) lesions [11]: significantly decreased formation | cell survival [12]: dose-dependent effect | EMT marker vimentin [13]: prevented | transcription factors regulating EMT (Twist and Snail) [13]: inhibited

O=c1sn(-c2cccc3ccccc23)c(=O)n1Cc1ccccc1 [tideglusib, 4-Benzyl-2-(naphthalen-1-yl)-1,2,4-thiadiazolidine-3,5-dione]
cell survival [12]: dose-dependent effect
